Earlier results in US6420378B1, “Inhibition of abnormal cell proliferation with camptothecin and combinations including the same” (priority 1999, dated 2002).

Tests used:
[1] = tested on: human colon cancer xenografts; settings: mouse, in vivo
[2] = tested on: human tumor xenografts
[3] = clinical trials, administered intravenously
[4] = tested on: tumorigenic human cells; settings: in vitro
[5] = tested on: nontumorigenic human cells; settings: in vitro

Compound: CC[C@@]1(O)C(=O)OCc2c1cc1n(c2=O)Cc2cc3c(N)cccc3nc2-1 [9AC, 9-Amino-20(S)-Camptothecin]
- anticancer activity against human colon cancer xenografts [1]: high anticancer activity

Compound: CC[C@@]1(O)C(=O)OCc2c1cc1n(c2=O)Cc2cc3c([N+](=O)[O-])cccc3nc2-1 [9NC, 9-nitrocamptothecin]
- growth of human tumor xenografts ([2]; immunodeficient nude mice): inhibited the growth
- activity against human tumor xenograft models ([2]; mouse, in vivo): high activity
- regression of human tumors established as xenografts ([2]; nude mice): induced regression

Compound: CC[C@@]1(O)C(=O)OCc2c1cc1n(c2=O)Cc2cc3cc4c(cc3nc2-1)OCO4 [10,11 MD, 10,11-Methylendioxy-20(S)-Camptothecin]
- anticancer activity against human colon cancer xenografts [1]: high anticancer activity

Compound: CC[C@@](O)(C(=O)[O-])c1cc2n(c(=O)c1CO)Cc1cc3ccccc3nc1-2.[Na+] [20(S)-camptothecin Na+]
- potency [3]: low potency
- toxicity [3]: high toxicity

Compound: CC[C@@]1(O)C(=O)OCc2c1cc1n(c2=O)Cc2cc3ccccc3nc2-1 [20(S)-camptothecin]
- effect on tumorigenic cells [4]: cytotoxic
- effect on nontumorigenic cells [5]: cytostatic
